In US8232407B2, “Nitrogenous heterocyclic compounds with insecticidal activity, and the preparation and use thereof” (East China University of Science and Technology, priority 2008, dated 2012):

Assays:
Assay type in all cases: in vivo
Settings in all cases: in vivo
Plutella xylostella = experiment: Insecticidal activities to diamondback moth, feeding dipped leaves
Summary of the method: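 Mortality was scored 24 h after larvae of Plutella xylostella (10 per treatment, 3 repeats) fed on cabbage leaves immersed 3 s in test solution and dried at room temperature. It was computed relative to survivors in a water-treated control.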

Aphis craccivoral = experiment: Insecticidal activities to aphids, immersion method
Summary of the method: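 Immersion assay: compound diluted from 10 g/L DMF stock to 500 ppm in 0.2 mL/L Triton X-100, sprout-feeding wingless adults dipped 5 s. Kept at 23° C, three repeats; 24 h mortality calculated relative to surviving Triton-treated controls.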

[1] = test system: Pseudaletia separate Walker; experiment: Insecticidal activities to armyworm, leaf dipping and feeding
Summary of the method: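 Armyworms (10 per tumbler, 3 replicates) ate fresh maize leaves that had been immersed for 3 seconds in compound solutions of 1.57-500 ppm in acetone, or in aqueous acetone for controls. Kills were scored at 24 h, and mortality was calculated relative to survivors in the control group.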

Nilaparvata lugens = experiment: Insecticidal activities to plant hopper, spraying method
Summary of the method: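 Spray test: acetone solutions of 500 down to 0.79 ppm, 2 ml per tumbler holding 10 planthoppers introduced 6 h earlier, triplicate, aqueous acetone as control. Mortality at 24 h calculated from survivors relative to control.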

Compound | Plutella xylostella Mortality (%) 500 ppm (Plutella xylostella) | Aphis craccivoral Mortality (%) 500 ppm (Aphis craccivoral) | Pseudaletia separate Walker Mortality (%) 500 ppm [1] | Nilaparvata lugens Mortality (%) 500 ppm (Nilaparvata lugens)
O=[N+]([O-])C(=Cc1ccc(Br)o1)C1=NCCN1CC1CCOC1 (stereo not drawn) [Compound 95] | 92% | 65% | 87% | 61%
O=[N+]([O-])C(=Cc1cc(Cl)co1)C1=NCCN1CC1CCOC1 (stereo not drawn) [Compound 96] | 52% | 32% | 58% | 50%
O=[N+]([O-])C(=Cc1cc(Br)co1)C1=NCCN1CC1CCOC1 (stereo not drawn) [Compound 97] | 86% | 76% | 90% | 88%
O=[N+]([O-])C(=Cc1cc(Cl)c(Cl)o1)C1=NCCN1CC1CCOC1 (stereo not drawn) [Compound 98] | 77% | 76% | 68% | 90%
O=[N+]([O-])C(=Cc1oc(Cl)cc1Cl)C1=NCCN1CC1CCOC1 (stereo not drawn) [Compound 99] | 100% | 87% | 100% | 97%
O=[N+]([O-])C(=Cc1cc(Br)c(Br)o1)C1=NCCN1CC1CCOC1 (stereo not drawn) [Compound 100] | 100% | 90% | 100% | 100%
CCc1ccc(C=C(C2=NCCN2CC2CCOC2)[N+](=O)[O-])o1 (stereo not drawn) [Compound 101] | 78% | 76% | 65% | 65%
O=[N+]([O-])C(=Cc1ccc(CO)o1)C1=NCCN1CC1CCOC1 (stereo not drawn) [Compound 102] | 97% | 75% | 89% | 89%
O=[N+]([O-])C(=Cc1ccco1)C1=NCCN1Cc1ccccc1 [Compound 103] | 25% | 86% | 70% | 100%
O=[N+]([O-])C(=Cc1ccoc1)C1=NCCN1Cc1ccccc1 [Compound 104] | 81% | 96% | 79% | 100%
O=[N+]([O-])C(=Cc1ccc([N+](=O)[O-])o1)C1=NCCN1Cc1ccccc1 [Compound 105] | 90% | 80% | 98% | 100%
O=[N+]([O-])C(=Cc1cc(Cl)co1)C1=NCCN1Cc1ccccc1 [Compound 106] | 75% | 91% | 59% | 87%
O=[N+]([O-])C(=Cc1cc(Br)co1)C1=NCCN1Cc1ccccc1 [Compound 107] | 85% | 82% | 96% | 92%
O=[N+]([O-])C(=Cc1cc(Cl)c(Cl)o1)C1=NCCN1Cc1ccccc1 [Compound 108] | 24% | 87% | 24% | 95%
O=[N+]([O-])C(=Cc1oc(Cl)cc1Cl)C1=NCCN1Cc1ccccc1 [Compound 109] | 56% | 91% | 60% | 100%
O=[N+]([O-])C(=Cc1cc(Br)c(Br)o1)C1=NCCN1Cc1ccccc1 [Compound 110] | 51% | 58% | 85% | 23%
CC(=C(C1=NCCN1Cc1ccc(Cl)nc1)[N+](=O)[O-])c1ccco1 [Compound 111] | 25% | 45% | 77% | 53%
CC(=C(C1=NCCN1Cc1ccc(Cl)nc1)[N+](=O)[O-])c1ccoc1 [Compound 112] | 53% | 56% | 68% | 76%
CC(=C(C1=NCCN1Cc1ccc(Cl)nc1)[N+](=O)[O-])c1ccc([N+](=O)[O-])o1 [Compound 113] | 100% | 80% | 100% | 100%
CC(=C(C1=NCCN1Cc1ccc(Cl)nc1)[N+](=O)[O-])c1ccc(C)o1 [Compound 114] | 30% | 92% | 10% | 100%
CCc1ccc(C(C)=C(C2=NCCN2Cc2ccc(Cl)nc2)[N+](=O)[O-])o1 [Compound 115] | 96% | 93% | 79% | 100%
CC(=C(C1=NCCN1Cc1ccc(Cl)nc1)[N+](=O)[O-])c1ccsc1 [Compound 116] | 64% | 89% | 76% | 94%
CC(=C(C1=NCCN1Cc1ccc(Cl)nc1)[N+](=O)[O-])c1ccc([N+](=O)[O-])s1 [Compound 117] | 86% | 83% | 77% | 88%
CC(=C(C1=NCCN1Cc1ccc(Cl)nc1)[N+](=O)[O-])c1ccc(Cl)s1 [Compound 118] | 23% | 93% | 19% | 90%
CC(=C(C1=NCCN1Cc1ccc(Cl)nc1)[N+](=O)[O-])c1ccc(Br)s1 [Compound 119] | 87% | 75% | 46% | 91%
CC(=C(C1=NCCN1Cc1ccc(Cl)nc1)[N+](=O)[O-])c1cc(Cl)cs1 [Compound 120] | 68% | 52% | 59% | 86%
N#CC(=Cc1ccco1)C1=NCCN1Cc1ccc(Cl)nc1 [Compound 140] | 100% | 100% | 100% | 100%
N#CC(=Cc1ccoc1)C1=NCCN1Cc1ccc(Cl)nc1 [Compound 141] | 100% | 100% | 100% | 100%
N#CC(=Cc1ccc([N+](=O)[O-])o1)C1=NCCN1Cc1ccc(Cl)nc1 [Compound 142] | 100% | 100% | 100% | 100%
N#CC(=Cc1oc(Cl)cc1Cl)C1=NCCN1Cc1ccc(Cl)nc1 [Compound 143] | 85% | 75% | 86% | 100%
